Our source for the IC50 values is patent US10822337B2, “TGF-β inhibitorC” (Rigel Pharmaceuticals, Inc., priority 2015, dated 2020).

The subject of assay [1] is GDF8 signaling (GDF pSMAD, MPC11). Nature of the assay: AlphaScreen SureFire SMAD3 (p-Ser423/425) assay, inhibition of GDF8 signaling. The assay is classed as cell-based. The note with it: Mus musculus, MPC-11, p-SMAD-3 (Ser423/425) in cell lysate after GDF8 stimulation. The text has this:
(§1) Example 2: AlphaScreen® SureFire® SMAD3 (p-Ser423/425) Assay
(§2) The p-SMAD-3 (Ser423/425) SureFire® assay has been designed to measure the phosphorylation of endogenous cellular p-SMAD-3 (Ser423/425) in cell lysates and is a system for the screening of both modulators of receptor activation (e.g. agonists and antagonists) as well as agents acting intracellularly, such as small molecule inhibitors of upstream events. The assay will measure p-SMAD-3 (Ser423/425) activation by either cloned or endogenous receptors, and can be applied to primary cells.
(§3) 1× Lysis buffer: 1 ml of 5× Lysis buffer was diluted with 4 ml of sterile water. After dilution, excess 1× Lysis buffer can be frozen and thawed up to 5 times without loss in activity.
(§4) P-SMAD-3 (Ser423/425) SureFire® Assay Protocols
(§5) Step A: Preparation of Buffers
(§6) Activation buffer: The buffer was warmed slowly to 37° C. and gently mixed to re-suspend. Activation buffer can be stored at room temperature with no loss in activity.
(§7) Reaction buffer: The buffer was kept at 4° C. while in use.
(§8) AlphaScreen® Protein A IgG Kit: The kit was stored at 4° C. in the dark.
(§9) Reaction buffer+Activation buffer+AlphaScreen® Acceptor beads: Reaction buffer (40 parts), Activation Buffer (10 parts) and Acceptor beads (1 part) were mixed and the mixture was stored at room temperature and used the same day. Mixture was added to 384-well plates; excess mixturewas discarded.
(§10) Dilution buffer+AlphaScreen® Donor beads: Dilution buffer (20 parts) and Donor beads (1 part) were mixed and the mixture was stored at room temperature and used the same day. Excess mixture was discarded.
(§11) Assay control samples: After reconstitution in 250 μl of water, lysates were at −20° C. in single use aliquots.
(§12) Step B: Preparation of Samples and Cells
(§13) 96-well Assay Protocol for 293FT and RMS13 adherent cells can be carried out manually or in high throughput with liquid handling robots.
(§14) The cells (80 μL of cells for 96 well plates) were plated in collagen coated tissue culture plates in RPMI or FreeStyle medium (Invitrogen) and incubated overnight. For manual analysis, 6 plates for GDF8, 6 plates for TGFβ, and optionally 6 plates for Alk5ca(ALKS constitutively active) were used.
(§15) The compound dilution plates were prepared as follows: 12 μL of DMSO was transferred into first column of 96-well plate, and 16 μL of DMSO was transferred into columns 2-12 of the 96-well plate. 12 μL of compound solution was transferred into first column of the DMSO-containing 96-well plate. Three-fold dilution was performed up to column 10 of the DMSO-containing 96-well plate.
(§16) Step C: Treatment and Analysis
(§17) The plate containing cells were treated with compounds for about 10 minutes, and then ligand was added. GDF8 or TGFb was added to plates to stimulate. 293FL cells were stimulatedfor 90 minutes at 37° C.; and RMS13 cells were stimulated for 60 minutes at 37° C. The medium was then removed from the cells, and 1× Lysis Buffer (about 25 μL) was added and the plate was gently agitated on plate shaker for 5-10 minutes.
(§18) The lysate (5 μL) was then placed into 384-well shallow plates avoiding the generation of bubbles. To this, the Reaction Buffer+Activation Buffer+AlphaScreen® Acceptor beadsmixture (5 μL) was added. The plate was sealed with adhesive cover and shielded from light (e.g., with metal foil), and agitated gently on plate shaker for 2 hours at room temperature.
(§19) Dilution buffer+AlphaScreen® Donor beads (2 μL) was then added, and the plate was intubated on the plate shaker for an additional 1½ hours. After completion, the plate was read on Synergy-4 or Enspire plate reader, using AlphaScreen® pSMAD3® settings.
(§20) Representative results for inhibition of GDF8 (data=GDF pSMAD (MPC11) (μM)) and TGF-β (data=TGF-β pSMAD (MPC-11) (μM)) signaling are shown in Table 1: […]
For orientation: In Alpha technology, singlet oxygen from a donor bead excites a nearby acceptor bead.

Assay [2] has as its system TGF-β signaling (TGF-β pSMAD, MPC-11). Kind of assay: AlphaScreen SureFire SMAD3 (p-Ser423/425) assay, inhibition of TGF-β signaling. As to conditions: Mus musculus, p-SMAD-3 (Ser423/425) in cell lysate after TGF-β stimulation. The assay is classed as cell-based.
Description: as §1, §2, §3, §4, §5, §6, §7, §8, §9, §10, §11, §12, §13, §14, §15, §16, §17, §18, §19, §20

Each structure is given as a SMILES string.

The term IC50 denotes the concentration needed to halve the response being measured. `Fc1ccc(-c2nn3c(c2-c2ccc4cn[nH]c4c2)CCC3)c(F)c1` [Compound 92, 6-(2-(2,4-Difluorophenyl)-5,6-dihydro-4H-pyrrolo[1,2-b]pyrazol-3-yl)-1H-indazole]: the IC50 is 228 nM in assay [1] and 1100 nM in assay [2]. Regarding `c1cc2c(cc1-c1nn3c(c1-c1ccc4[nH]ncc4c1)CCC3)OCO2` [Compound 90, 5-(2-(Benzo[d][1,3]dioxol-5-yl)-5,6-dihydro-4H-pyrrolo[1,2-b]pyrazol-3-yl)-1H-indazole], the half-maximal inhibitory concentration (IC50) in assay [1] was found to be 776 nM; in assay [2], 4020 nM. With `COc1cccc(-c2nn3c(c2-c2ccc4ncn(C)c4c2)OCC3)c1` [Compound 72, 6-(3-Methoxyphenyl)-7-(1-methyl-1H-benzo[d]imidazol-6-yl)-2,3-dihydropyrazolo[5,1-b]oxazole], the IC50 came to 233 nM in assay [1] and 664 nM in assay [2].

Regarding `Fc1c(Cl)cccc1-c1nn2c(c1-c1ccc3ncnn3c1)CCC2` [Compound 141, 6-(2-(3-Chloro-2-fluorophenyl)-5,6-dihydro-4H-pyrrolo[1,2-b]pyrazol-3-yl)-[1,2,4]triazolo[1,5-a]pyridine], the figures for the 50% inhibitory concentration (IC50) in assay [1] and in assay [2] were 208 nM and 703 nM, respectively. With `COc1cccc(-c2nn3c(c2-c2ccc4[nH]ncc4c2)CCC3)c1` [Compound 27, 5-(2-(3-Methoxyphenyl)-5,6-dihydro-4H-pyrrolo[1,2-b]pyrazol-3-yl)-1H-indazole], the IC50 in assay [1] stood at 206 nM; in assay [2], 847 nM. In the same order, the values of `Fc1ccc(F)c(-c2nn3c(c2-c2ccc4[nH]ncc4c2)CCC3)c1` [Compound 1, 5-(2-(2,5-difluorophenyl)-5,6-dihydro-4H-pyrrolo[1,2-b]pyrazol-3-yl)-1H-indazole] are 592 nM and 2030 nM. Take `Fc1ccccc1-c1nn2c(c1-c1ccc3nccn3c1)CCC2` [Compound 135, 6-(2-(2-Fluorophenyl)-5,6-dihydro-4H-pyrrolo[1,2-b]pyrazol-3-yl)imidazo[1,2-a]pyridine]: the IC50 in assay [1] was found to be 924 nM; in assay [2], 2150 nM. In the same order, the values of `Fc1ccc(-c2nn3c(c2-c2ccc4nccn4c2)CCC3)c(F)c1F` [Compound 130, 6-(2-(2,3,4-Trifluoropehnyl)-5,6-dihydro-4H-pyrrolo[1,2-b]pyrazol-3-yl)imidazo[1,2-a]pyridine] are 319 nM and 1400 nM. `Cc1cccc(-c2nn3c(c2-c2ccc4nccnc4c2)OCC3)c1` [Compound 52, 7-(Quinoxalin-6-yl)-6-(m-tolyl)-2,3-dihydropyrazolo[5,1-b]oxazole]: the half-inhibitory concentration (IC50) in assay [1] came out at 47.7 nM; in assay [2] it was 203 nM.

Take `Fc1ccc(F)c(-c2nn3c(c2-c2ccc4ncnn4c2)CCC3)c1` [Compound 198, 6-(2-(2,5-Difluorophenyl)-5,6-dihydro-4H-pyrrolo[1,2-b]pyrazol-3-yl)-[1,2,4]triazolo[1,5-a]pyridine]: the IC50 in assay [1] is 26.4 nM; in assay [2], 334 nM. For the molecule `Fc1cccc(-c2nn3c(c2-c2ccc4ncnn4c2)CCC3)c1` [Compound 109, 6-(2-(3-Fluorophenyl)-5,6-dihydro-4H-pyrrolo[1,2-b]pyrazol-3-yl)-[1,2,4]triazolo[1,5-a]pyridine], the IC50 in assay [1] stood at 132 nM; in assay [2] it was 927 nM. `COc1c(F)ccc(-c2nn3c(c2-c2ccc4[nH]ncc4c2)CCC3)c1F` [Compound 161, 5-(2-(2,4-Difluoro-3-methoxyphenyl)-5,6-dihydro-4H-pyrrolo[1,2-b]pyraozl-3-yl)-1H-indazole]: the half-maximal inhibitory concentration (IC50) stood at 626 nM in assay [1] and 1440 nM in assay [2].

On to `Fc1ccc(-c2nn3c(c2-c2ccc4ncccc4c2)CCC3)cc1F` [Compound 88, 6-(2-(3,4-Difluorophenyl)-5,6-dihydro-4H-pyrrolo[1,2-b]pyrazol-3-yl)quinoline], for which the IC50 stood at 1060 nM in assay [1] and 9580 nM in assay [2]. For `Fc1ccc(-c2nn3c(c2-c2ccc4ncccc4c2)CCC3)cc1Cl` [Compound 146, 6-(2-(3-Chloro-4-fluorophenyl)-5,6-dihydro-4H-pyrrolo[1,2-b]pyrazol-3-yl)quinoline], the concentration for half-maximal inhibition (IC50) in assay [1] was 1040 nM; in assay [2], 2730 nM. In the same order, the values of `Cc1cc(-c2nn3c(c2-c2ccc4cn[nH]c4c2)CCC3)c(F)cc1F` [Compound 180, 6-(2-(2,4-Difluoro-5-methylphenyl)-5,6-dihydro-4H-pyrrolo[1,2-b]pyrazol-3-yl)-1H-indazole] are 587 nM and 1750 nM. As to `Fc1ccc(-c2nn3c(c2-c2ccc4ncsc4c2)CCC3)c(F)c1Cl` [Compound 158, 6-(2-(3-Chloro-2,4-difluorophenyl)-5,6-dihydro-4H-pyrrolo[1,2-b]pyrazol-3-yl)benzo[d]thiazole], the values for the IC50 in assay [1] and in assay [2] were 84.2 nM and 549 nM, respectively. In the same order, the values of `Cc1cc(-c2nn3c(c2-c2ccc4ncccc4c2)CCC3)ccc1F` [Compound 47, 6-(2-(4-Fluoro-3-methylphenyl)-5,6-dihydro-4H-pyrrolo[1,2-b]pyrazol-3-yl)quinoline] are 335 nM and 2520 nM. In the same order, the values of `COc1cccc(-c2nn3c(c2-c2ccc4nccnc4c2)CCC3)c1` [Compound 56, 6-(2-(3-Methoxyphenyl)-5,6-dihydro-4H-pyrrolo[1,2-b]pyrazol-3-yl)quinoxaline] are 372 nM and 866 nM.

Take `COc1ccc(-c2nn3c(c2-c2ccc4ncccc4c2)CCC3)cc1` [Compound 101, 6-(2-(4-Methoxyphenyl)-5,6-dihydro-4H-pyrrolo[1,2-b]pyrazol-3-yl)quinoline]: in assay [1], the half-maximal inhibitory concentration (IC50) came to 2450 nM. In the case of `Cc1cccc(-c2nn3c(c2-c2ccc4ncn(C)c4c2)OCCC3)c1` [Compound 41, 3-(1-Methyl-1H-benzo[d]imidazol-6-yl)-2-(m-tolyl)-6,7-dihydro-5H-pyrazolo[5,1-b][1,3]oxazine], the IC50 came to 80.8 nM in assay [1] and 188 nM in assay [2]. In the same order, the values of `Cc1cccc(-c2nn3c(c2-c2ccc4cn[nH]c4c2)CCC3)c1` [Compound 8, 6-(2-(m-Tolyl)-5,6-dihydro-4H-pyrrolo[1,2-b]pyrazol-3-yl)-1H-indazole] are 21.3 nM and 79.4 nM. Turning to `Cn1cnc2ccc(-c3c(-c4cc(F)c(F)cc4F)nn4c3CCC4)cc21` [Compound 114, 1-Methyl-6-(2-(2,4,5-trifluorophenyl)-5,6-dihydro-4H-pyrrolo[1,2-b]pyrazol-3-yl)-1H-benzo[d]imidazole], the half-inhibitory concentration (IC50) in assay [1] was 24 nM; in assay [2], 87.6 nM. In the same order, the values of `FC(F)(F)Oc1cccc(-c2nn3c(c2-c2ccc4nccnc4c2)CCC3)c1` [Compound 126, 6-(2-(3-Trifluoromethoxyphenyl)-5,6-dihydro-4H-pyrrolo[1,2-b]pyrazol-3-yl)quinoxaline] are 156 nM and 222 nM. In the same order, the values of `Cc1cc(-c2nn3c(c2-c2ccc4ncsc4c2)CCC3)c(F)cc1F` [Compound 182, 6-(2-(2,4-Difluoro-5-methylphenyl)-5,6-dihydro-4H-pyrrolo[1,2-b]pyrazol-3-yl)benzo[d]thiazole] are 112 nM and 225 nM.

As for `Fc1cccc(-c2nn3c(c2-c2ccc4nccnc4c2)CCC3)c1` [Compound 82, 6-(2-(3-Fluorophenyl)-5,6-dihydro-4H-pyrrolo[1,2-b]pyrazol-3-yl)quinoxaline], the IC50 was determined as 330 nM in assay [1] and 1950 nM in assay [2].
